Here are results for one compound from patent US20080300258A1, “ANHYDROUS CIPROFLOXACIN HYDROCHLORIDE” (priority 2007, published 2008).

For the data set the following is noted: eight weeks of storage at 40 degrees C., relative humidity 75%.

Structures are written as SMILES.

Regarding `O=C(O)c1cn(C2CC2)c2cc(N3CCNCC3)c(F)cc2c1=O` [1-cyclopropyl-6-fluoro-1,4-dihydro-4-oxo-7-(1-piperazinyl)-3-quinolinecarboxylic acid], the decomposition on storage result is reported as “no significant decomposition was observed” and the “water intake on storage” value is on record as “No water intake was observed”.
